Where “and” joins values, the source holds several entries; their conditions need not be identical. Equal entries are not always repeated.
Assays:
Type in all cases: in vivo
[1] = Plasma PK and tissue distribution after oral dosing of prodrug EXAMPLE 7 (5 mg/kg); conditions: PO 5 mg/kg EXAMPLE 7 (prodrug), analyte as labelled
Protocol: (§1) Tissue Distribution of drug intermediate C4 from oral dosing of C4 and of intermediate C4 from oral dosing of example 7 in rats
(§2) • Wistar Han rat, 185-197 g, male, N=8, purchased from Beijing Vital River Co. LTD. Qualification No.: SCXK(J) 2016-0011 11400700240027. Fasted overnight and fed 4 hr post dose. PO: 5 mg/kg (10 mL/kg) via oral gavage(N=8). Sampling at 1, 4, 8 and 24 hr , 4 time points, terminal bleeding for plasma, liver, lymph nodes and spleen collected at each time point

[2] = Plasma PK and tissue distribution after oral dosing of INTERMEDIATE C4 (3 mg/kg); conditions: PO 3 mg/kg INTERMEDIATE C4, male Wistar Han rat; for Kp at 1 h / Kp at 4 h / Kp at 8 h / Kp / concentration at 1 h / concentration at 4 h / concentration at 8 h: male, Wistar Han, rat, po
Protocol: as §1
as §2, with “dose. PO: 3 mg/kg (10” for “dose. PO: 5 mg/kg (10”, “each time point.” for “each time point”

[3] = Rat oral PK studies of prodrugs at 5 mg/kg; conditions: after PO dose of 5 mg/kg example 7 in male Wistar Han rat; analyte as labelled
Protocol: Rat oral PK studies of prodrugs at 5 mg/kg dose (solution in 100% (40 mg oleic acid+25mg Tween 80+2 mL of PBS/fresh) at 0.5 mg/mL).

[4] = male Wistar Han rat, 1 hr, 5 mg/kg
[5] = male Wistar Han rat, 4 hr, 5 mg/kg

Lymph node to plasma ratio individual [1, 4]: 2.99
Spleen to plasma ratio individual [1, 4]: 0.677
lymph node Concentration individual [1, 4]: 685 ng/g
plasma Concentration individual [1, 4]: 229 ng/mL
spleen Concentration individual [1, 4]: 155 ng/g
Lymph node to plasma ratio individual [1, 5]: 2.15
Spleen to plasma ratio individual [1, 5]: 0.260
lymph node Concentration individual [1, 5]: 63.1 ng/g
spleen Concentration individual [1, 5]: 23.1 ng/g and 7.65 ng/g
spleen Concentration Mean ([1]; male Wistar Han rat, 8 hr): BQL
spleen Concentration individual ([1]; male Wistar Han rat, 8 hr): BQL
lymph node Concentration individual ([1]; male Wistar Han rat, 8 hr, 5 mg/kg): 16.3 ng/g and 6.17 ng/g
liver Concentration Mean ([1]; male Wistar Han rat, 24 hr): BQL
liver Concentration individual ([1]; male Wistar Han rat, 24 hr): BQL
lymph node Concentration Mean ([1]; male Wistar Han rat, 24 hr): BQL
lymph node Concentration individual ([1]; male Wistar Han rat, 24 hr): BQL
plasma Concentration Mean ([1]; male Wistar Han rat, 24 hr): BQL
plasma Concentration individual ([1]; male Wistar Han rat, 24 hr): BQL
spleen Concentration Mean ([1]; male Wistar Han rat, 24 hr): BQL
spleen Concentration individual ([1]; male Wistar Han rat, 24 hr): BQL
AUC(0-t) ([1]; lymph node, male Wistar Han rat, read-out: AUClast (lymph node)): 1890 ng·h/mL
concentration at 1 h ([1]; male, Wistar Han, rat, lymph node, po, 5 mg/kg, 1 hr, read-out: lymph node Concentration Mean): 807 ng/g
concentration at 1 h ([1]; male, Wistar Han, rat, lymph node, po, 5 mg/kg, 1 hr, read-out: lymph node Concentration individual): 928 ng/g
concentration at 4 h ([1]; male, Wistar Han, rat, lymph node, po, 5 mg/kg, 4 hr, read-out: lymph node Concentration Mean): 73.8 ng/g
concentration at 4 h ([1]; male, Wistar Han, rat, lymph node, po, 5 mg/kg, 4 hr, read-out: lymph node Concentration individual): 84.4 ng/g
concentration at 8 h ([1]; male, Wistar Han, rat, lymph node, po, 5 mg/kg, 8 hr): 11.2 ng/g
Kp at 1 h ([1]; male, Wistar Han, rat, lymph node/plasma, po, 5 mg/kg, 1 hr, read-out: Lymph node to plasma ratio Mean): 3.86
Kp at 1 h ([1]; male, Wistar Han, rat, lymph node/plasma, po, 5 mg/kg, 1 hr, read-out: Lymph node to plasma ratio individual): 4.73
Kp at 4 h ([1]; male, Wistar Han, rat, lymph node/plasma, po, 5 mg/kg, 4 hr, read-out: Lymph node to plasma ratio Mean): 1.66
Kp at 4 h ([1]; male, Wistar Han, rat, lymph node/plasma, po, 5 mg/kg, 4 hr, read-out: Lymph node to plasma ratio individual): 1.16
Kp at 8 h ([1]; male, Wistar Han, rat, lymph node/plasma, po, 5 mg/kg, 8 hr, read-out: Lymph node to plasma ratio Mean): 0.994
Kp at 8 h ([1]; male, Wistar Han, rat, lymph node/plasma, po, 5 mg/kg, 8 hr, read-out: Lymph node to plasma ratio individual): 0.994
Kp ([1]; male, Wistar Han, rat, lymph node/plasma, po, 5 mg/kg, read-out: AUClimphnode/AUCplasma): 2.99
concentration at 1 h ([1]; male, Wistar Han, rat, plasma, po, 5 mg/kg, 1 hr, read-out: plasma Concentration Mean): 213 ng/mL
concentration at 1 h ([1]; male, Wistar Han, rat, plasma, po, 5 mg/kg, 1 hr, read-out: plasma Concentration individual): 196 ng/mL
concentration at 1 h ([1]; male, Wistar Han, rat, spleen, po, 5 mg/kg, 1 hr, read-out: spleen Concentration Mean): 165 ng/g
concentration at 1 h ([1]; male, Wistar Han, rat, spleen, po, 5 mg/kg, 1 hr, read-out: spleen Concentration individual): 175 ng/g
concentration at 4 h ([1]; male, Wistar Han, rat, spleen, po, 5 mg/kg, 4 hr, read-out: spleen Concentration Mean): 15.4 ng/g
Kp at 1 h ([1]; male, Wistar Han, rat, spleen/plasma, po, 5 mg/kg, 1 hr, read-out: Spleen to plasma ratio Mean): 0.785
Kp at 1 h ([1]; male, Wistar Han, rat, spleen/plasma, po, 5 mg/kg, 1 hr, read-out: Spleen to plasma ratio individual): 0.893
Kp at 4 h ([1]; male, Wistar Han, rat, spleen/plasma, po, 5 mg/kg, 4 hr, read-out: Spleen to plasma ratio Mean): 0.289
Kp at 4 h ([1]; male, Wistar Han, rat, spleen/plasma, po, 5 mg/kg, 4 hr, read-out: Spleen to plasma ratio individual): 0.319
Kp ([1]; male, Wistar Han, rat, spleen/plasma, po, 5 mg/kg, read-out: AUCspleen/AUCplasma): 0.558
AUC(0-t) ([1]; spleen, male Wistar Han rat, read-out: AUClast (spleen)): 353 ng·h/mL
Liver to plasma ratio individual ([2]; 1 hr, 3 mg/kg): 8.11
Lymph node to plasma ratio individual ([2]; 1 hr, 3 mg/kg): 0.254
Spleen to plasma ratio individual ([2]; 1 hr, 3 mg/kg): 0.197
liver Concentration individual ([2]; 1 hr, 3 mg/kg): 2570 ng/g
lymph node Concentration individual ([2]; 1 hr, 3 mg/kg): 80.4 ng/g
plasma Concentration individual ([2]; 1 hr, 3 mg/kg): 317 ng/mL
spleen Concentration individual ([2]; 1 hr, 3 mg/kg): 62.4 ng/g
Liver to plasma ratio individual ([2]; 4 hr, 3 mg/kg): 14.7
Lymph node to plasma ratio individual ([2]; 4 hr, 3 mg/kg): 0.905
Spleen to plasma ratio individual ([2]; 4 hr, 3 mg/kg): 0.333
liver Concentration individual ([2]; 4 hr, 3 mg/kg): 898 ng/g
lymph node Concentration individual ([2]; 4 hr, 3 mg/kg): 55.4 ng/g
plasma Concentration individual ([2]; 4 hr, 3 mg/kg): 61.2 ng/mL
spleen Concentration individual ([2]; 4 hr, 3 mg/kg): 20.4 ng/g
spleen Concentration Mean ([2]; 8 hr): BQL
spleen Concentration individual ([2]; 8 hr): BQL
Liver to plasma ratio individual ([2]; 8 hr, 3 mg/kg): 13.2
liver Concentration individual ([2]; 8 hr, 3 mg/kg): 299 ng/g
lymph node Concentration individual ([2]; 8 hr, 3 mg/kg): BQL
plasma Concentration individual ([2]; 8 hr, 3 mg/kg): 22.7 ng/mL
liver Concentration Mean ([2]; 24 hr): BQL
liver Concentration individual ([2]; 24 hr): BQL
lymph node Concentration Mean ([2]; 24 hr): BQL
lymph node Concentration individual ([2]; 24 hr): BQL
plasma Concentration Mean ([2]; 24 hr): BQL
plasma Concentration individual ([2]; 24 hr): BQL
spleen Concentration Mean ([2]; 24 hr): BQL
spleen Concentration individual ([2]; 24 hr): BQL
AUC(0-t) ([2]; liver, read-out: AUClast (liver)): 10200 ng·h/mL
AUC(0-t) ([2]; lymph node, read-out: AUClast (lymph node)): 381 ng·h/mL
Kp at 1 h ([2]; liver / plasma, 3 mg/kg, 1 hr, read-out: Liver to plasma ratio Mean): 9.31
Kp at 1 h ([2]; liver / plasma, 3 mg/kg, 1 hr, read-out: Liver to plasma ratio individual): 10.5
Kp at 4 h ([2]; liver / plasma, 3 mg/kg, 4 hr, read-out: Liver to plasma ratio Mean): 13.7
Kp at 4 h ([2]; liver / plasma, 3 mg/kg, 4 hr, read-out: Liver to plasma ratio individual): 12.7
Kp at 8 h ([2]; liver / plasma, 3 mg/kg, 8 hr, read-out: Liver to plasma ratio Mean): 14.6
Kp at 8 h ([2]; liver / plasma, 3 mg/kg, 8 hr, read-out: Liver to plasma ratio individual): 16
Kp ([2]; liver / plasma, 3 mg/kg, read-out: AUCliver/AUCplasma): 10.7
concentration at 1 h ([2]; liver, 3 mg/kg, 1 hr, read-out: liver Concentration Mean): 3130 ng/g
concentration at 1 h ([2]; liver, 3 mg/kg, 1 hr, read-out: liver Concentration individual): 3690 ng/g
concentration at 4 h ([2]; liver, 3 mg/kg, 4 hr, read-out: liver Concentration Mean): 883 ng/g
concentration at 4 h ([2]; liver, 3 mg/kg, 4 hr, read-out: liver Concentration individual): 868 ng/g
concentration at 8 h ([2]; liver, 3 mg/kg, 8 hr, read-out: liver Concentration Mean): 420 ng/g
concentration at 8 h ([2]; liver, 3 mg/kg, 8 hr, read-out: liver Concentration individual): 540 ng/g
Kp at 1 h ([2]; lymph node / plasma, 3 mg/kg, 1 hr, read-out: Lymph node to plasma ratio Mean): 0.293
Kp at 1 h ([2]; lymph node / plasma, 3 mg/kg, 1 hr, read-out: Lymph node to plasma ratio individual): 0.333
Kp at 4 h ([2]; lymph node / plasma, 3 mg/kg, 4 hr, read-out: Lymph node to plasma ratio Mean): 0.716
Kp at 4 h ([2]; lymph node / plasma, 3 mg/kg, 4 hr, read-out: Lymph node to plasma ratio individual): 0.526
Kp at 8 h ([2]; lymph node / plasma, 3 mg/kg, 8 hr, read-out: Lymph node to plasma ratio Mean): 0.353
Kp at 8 h ([2]; lymph node / plasma, 3 mg/kg, 8 hr, read-out: Lymph node to plasma ratio individual): 0.353
Kp ([2]; lymph node / plasma, 3 mg/kg, read-out: AUClimphnode/AUCplasma): 0.401
concentration at 1 h ([2]; lymph node, 3 mg/kg, 1 hr, read-out: lymph node Concentration Mean): 98.7 ng/g
concentration at 1 h ([2]; lymph node, 3 mg/kg, 1 hr, read-out: lymph node Concentration individual): 117 ng/g
concentration at 4 h ([2]; lymph node, 3 mg/kg, 4 hr, read-out: lymph node Concentration Mean): 45.7 ng/g
concentration at 4 h ([2]; lymph node, 3 mg/kg, 4 hr, read-out: lymph node Concentration individual): 35.9 ng/g
concentration at 8 h ([2]; lymph node, 3 mg/kg, 8 hr, read-out: lymph node Concentration Mean): 11.9 ng/g
concentration at 8 h ([2]; lymph node, 3 mg/kg, 8 hr, read-out: lymph node Concentration individual): 11.9 ng/g
concentration at 1 h ([2]; plasma, 3 mg/kg, 1 hr, read-out: plasma Concentration Mean): 334 ng/mL
concentration at 1 h ([2]; plasma, 3 mg/kg, 1 hr, read-out: plasma Concentration individual): 351 ng/mL
concentration at 4 h ([2]; plasma, 3 mg/kg, 4 hr, read-out: plasma Concentration Mean): 64.7 ng/mL
concentration at 4 h ([2]; plasma, 3 mg/kg, 4 hr, read-out: plasma Concentration individual): 68.2 ng/mL
concentration at 8 h ([2]; plasma, 3 mg/kg, 8 hr, read-out: plasma Concentration Mean): 28.2 ng/mL
concentration at 8 h ([2]; plasma, 3 mg/kg, 8 hr, read-out: plasma Concentration individual): 33.7 ng/mL
concentration at 1 h ([2]; spleen, 3 mg/kg, 1 hr, read-out: spleen Concentration Mean): 63.9 ng/g
concentration at 1 h ([2]; spleen, 3 mg/kg, 1 hr, read-out: spleen Concentration individual): 65.3 ng/g
concentration at 4 h ([2]; spleen, 3 mg/kg, 4 hr, read-out: spleen Concentration Mean): 19.9 ng/g
concentration at 4 h ([2]; spleen, 3 mg/kg, 4 hr, read-out: spleen Concentration individual): 19.3 ng/g
Kp at 1 h ([2]; spleen/plasma, 3 mg/kg, 1 hr, read-out: Spleen to plasma ratio Mean): 0.191
Kp at 1 h ([2]; spleen/plasma, 3 mg/kg, 1 hr, read-out: Spleen to plasma ratio individual): 0.186
Kp at 4 h ([2]; spleen/plasma, 3 mg/kg, 4 hr, read-out: Spleen to plasma ratio Mean): 0.308
Kp at 4 h ([2]; spleen/plasma, 3 mg/kg, 4 hr, read-out: Spleen to plasma ratio individual): 0.283
Kp ([2]; spleen/plasma, 3 mg/kg, read-out: AUCspleen/AUCplasma): 0.166
AUC(0-inf) ([2]; plasma, mean): 1030 ng·h/mL
Cmax ([2]; plasma, mean): 334 ng/mL
Tmax ([2]; plasma, mean): 1 h
AUC(0-t) ([2]; plasma, mean, read-out: AUClast): 951 ng·h/mL
half-life ([2]; plasma, mean, read-out: Terminal t1/2 (converted)): 2.01 h
AUC(0-t) ([2]; spleen, read-out: AUClast (spleen)): 157 ng·h/mL
DNAUC0_20 [3]: 126.6 ng·h/mL
SMILES: CC(C)CN(c1ccc([C@H](C)CC(=O)O)cc1Nc1cnc(Cl)cn1)C1CCOCC1 [intermediate C4]

— patent US20210186960A1, “MODULATORS OF INDOLEAMINE 2,3-DIOXYGENASE” (GLAXOSMITHKLINE INTELLECTUAL PROPERTY DEVELOPMENT LIMITED, priority 2017, published 2021)
